The source made the active and inactive calls.
How the values were obtained:
[1] = Trypanosoma cruzi growth suppression in host cells – NIH3T3 host cells, beta-gal luminescence, confirmation (AID 2044); type: functional, cell-based;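 further: intracellular parasites grown in NIH/3T3 mouse fibroblasts as host cells; luminescent beta-galactosidase reporter signal from transgenic T. cruzi replicating inside host cells; inhibitors lower the luminescence signal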
[2] = antiviral protection against BTV-induced cell death – arbovirus, BSR cells, confirmation (AID 1250); type: functional;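 further: protection from viral cytopathic effect measured as cell viability by ATP luminescence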
[3] = NIH3T3 cell viability loss – ATP luminescence, mouse fibroblasts, counter-screen, dose response (AID 2010); type: functional, cell-based;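 further: cells exposed to compound for about 90 hours before reading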
HEK293 [4] = test: inhibition of NOD1-driven NF-kB reporter – cell-based, luminescence, uHTS, primary screen (AID 1578); type: functional; conditions: Homo sapiens
[5] = biological target: T1, Nucleotide-binding oligomerization domain-containing protein 1 (Homo sapiens, UniProt Q9Y239); test: blockers of NOD1 pathway activity – revised, SAR follow-up (AID 2333); type: functional
T1 sequence (Q9Y239 whole entry): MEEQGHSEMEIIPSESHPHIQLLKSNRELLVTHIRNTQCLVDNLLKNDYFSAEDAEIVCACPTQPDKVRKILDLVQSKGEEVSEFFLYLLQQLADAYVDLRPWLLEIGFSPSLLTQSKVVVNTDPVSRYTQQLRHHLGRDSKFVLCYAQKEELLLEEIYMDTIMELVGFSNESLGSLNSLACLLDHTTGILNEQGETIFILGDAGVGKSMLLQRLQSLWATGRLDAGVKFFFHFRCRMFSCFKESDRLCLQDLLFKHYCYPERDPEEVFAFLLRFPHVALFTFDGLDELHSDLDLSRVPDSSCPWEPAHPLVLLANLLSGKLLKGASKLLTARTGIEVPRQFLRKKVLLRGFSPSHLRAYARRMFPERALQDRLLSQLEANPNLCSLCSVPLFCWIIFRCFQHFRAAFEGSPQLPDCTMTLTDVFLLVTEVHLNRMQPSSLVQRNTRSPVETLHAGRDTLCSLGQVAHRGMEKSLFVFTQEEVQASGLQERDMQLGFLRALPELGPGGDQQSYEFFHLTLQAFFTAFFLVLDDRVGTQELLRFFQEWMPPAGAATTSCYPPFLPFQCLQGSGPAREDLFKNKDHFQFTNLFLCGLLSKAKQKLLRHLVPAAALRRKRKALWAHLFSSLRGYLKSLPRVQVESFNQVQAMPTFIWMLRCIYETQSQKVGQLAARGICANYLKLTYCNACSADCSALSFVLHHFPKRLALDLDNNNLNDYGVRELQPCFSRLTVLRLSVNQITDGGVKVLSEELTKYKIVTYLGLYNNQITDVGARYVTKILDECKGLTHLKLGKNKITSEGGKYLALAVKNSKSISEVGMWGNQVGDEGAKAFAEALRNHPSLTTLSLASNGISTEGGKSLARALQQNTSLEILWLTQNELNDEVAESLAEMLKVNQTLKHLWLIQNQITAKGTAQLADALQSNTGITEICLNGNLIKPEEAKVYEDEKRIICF

[6] = biological target: T2, Corticotropin-releasing factor receptor 2/Corticotropin-releasing factor-binding protein (Homo sapiens, UniProt P24387+Q13324); test: Dose Response confirmation of uHTS hits for small molecule antagonists of the CRF-binding protein and CRF-R2 receptor complex.; type: functional; conditions: read-out: IC50_Mean
T2 sequence (Q13324 whole entry): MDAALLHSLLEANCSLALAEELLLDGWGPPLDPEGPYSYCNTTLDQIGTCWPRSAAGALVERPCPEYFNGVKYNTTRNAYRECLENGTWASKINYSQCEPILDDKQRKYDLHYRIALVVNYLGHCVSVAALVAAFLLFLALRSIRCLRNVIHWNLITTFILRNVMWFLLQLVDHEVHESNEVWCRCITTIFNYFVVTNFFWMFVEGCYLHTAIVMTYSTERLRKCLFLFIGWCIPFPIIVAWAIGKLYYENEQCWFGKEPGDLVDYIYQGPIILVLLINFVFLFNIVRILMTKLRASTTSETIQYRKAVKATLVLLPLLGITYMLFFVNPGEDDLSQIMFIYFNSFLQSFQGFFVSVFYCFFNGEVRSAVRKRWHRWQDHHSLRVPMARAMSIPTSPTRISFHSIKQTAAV
T2 sequence (P24387 whole entry): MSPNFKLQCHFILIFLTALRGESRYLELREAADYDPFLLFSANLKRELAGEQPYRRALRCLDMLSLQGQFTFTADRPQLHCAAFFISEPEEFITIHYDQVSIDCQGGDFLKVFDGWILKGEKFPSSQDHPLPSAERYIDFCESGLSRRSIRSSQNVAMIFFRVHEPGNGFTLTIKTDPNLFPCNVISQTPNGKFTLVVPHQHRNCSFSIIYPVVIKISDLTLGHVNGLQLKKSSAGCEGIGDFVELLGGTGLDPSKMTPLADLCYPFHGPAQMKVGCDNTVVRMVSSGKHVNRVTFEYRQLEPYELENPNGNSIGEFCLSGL

[7] = biological target: T3, Calpain-2 catalytic subunit (Sus scrofa, UniProt P43367); test: m-calpain protease blockers, concentration series – biochemical, fluorogenic peptide substrate, dose response (AID 1420); type: functional
T3 sequence (P43367 whole entry): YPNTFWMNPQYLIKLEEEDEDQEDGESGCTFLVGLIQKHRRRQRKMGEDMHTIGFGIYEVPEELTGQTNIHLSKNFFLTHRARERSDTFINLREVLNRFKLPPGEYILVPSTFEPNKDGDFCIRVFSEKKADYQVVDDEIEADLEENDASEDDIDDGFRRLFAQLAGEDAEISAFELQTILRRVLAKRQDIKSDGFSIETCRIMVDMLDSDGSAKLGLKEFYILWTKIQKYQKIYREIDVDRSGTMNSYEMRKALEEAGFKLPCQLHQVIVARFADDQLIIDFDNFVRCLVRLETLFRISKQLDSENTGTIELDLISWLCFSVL

HEK293 [8] = test: cells; type: functional, cell-based; conditions: Homo sapiens
[9] = HEK-293T viability loss after treatment – luminescence, T-cell screen hits, cytotoxicity control for TCR NF-kB inhibitor project, dose response (AID 489026); type: functional, cell-based;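 further: cells exposed to compound about 14 hours before the viability readout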
Tumor necrosis factor = Tumor necrosis factor (Homo sapiens, UniProt P01375); test: analog potency on TNFa NF-kB signaling – cell-based, revised, SAR follow-up (AID 2337); type: functional
HEK293 [10] = test: cells; type: functional, cell-based; conditions: Homo sapiens; remark: listed apart in the source
HEK293 [11] = test: cells; conditions: Homo sapiens
HEK293 [12] = test: NOD2 signaling inhibitors in MDP-stimulated cells, cell-based, uHTS, luminescence (AID 2001); type: functional; conditions: Homo sapiens
[13] = biological target: T2, Corticotropin-releasing factor receptor 2/Corticotropin-releasing factor-binding protein; test: activators of CRF receptor 2 with binding protein – uHTS hits, confirmation (AID 602473); type: functional; conditions: read-out: EC50_Mean

Tumor necrosis factor, sequence (P01375 whole entry): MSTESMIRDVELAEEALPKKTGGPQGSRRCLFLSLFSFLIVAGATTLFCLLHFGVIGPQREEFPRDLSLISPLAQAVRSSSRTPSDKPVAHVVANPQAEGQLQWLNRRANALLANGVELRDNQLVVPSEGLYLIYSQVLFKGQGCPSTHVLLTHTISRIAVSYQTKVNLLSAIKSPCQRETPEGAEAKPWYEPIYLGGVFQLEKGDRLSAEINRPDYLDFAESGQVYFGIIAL

| Compound | EC50 [1] | IC50 [2] | EC50 [3] | EC50 (HEK293 [4]) | IC50 [5] | IC50 [6] | IC50 [7] | IC50 (HEK293 [8]) | IC50 [9] | IC50 (Tumor necrosis factor) | IC50 (HEK293 [10]) | IC50 (HEK293 [11]) | IC50 (HEK293 [12]) | EC50 [13] |
| --- | --- | --- | --- | --- | --- | --- | --- | --- | --- | --- | --- | --- | --- | --- |
| S=C(NCc1ccccc1)N1CCn2cccc2C1c1cccnc1 (stereo not given) | 2.95 µM (active) | 22.1 µM (active) | > 60 µM (inconclusive) | – | – | – | – | – | – | – | – | – | – | – |
| O=C(Nc1ccc(Oc2cccnc2)nc1)c1ccc(C(F)(F)F)cc1 | – | – | – | 2.4 µM (active) | 2.26 µM (active) | > 47.1 µM (inactive) | 48.1 µM (not active) | 4.32 µM (active) | > 80 µM (inactive) | 2.79 µM (active) | > 20 µM (inactive) | > 20 µM (inactive) | 8.57 µM (active) | > 53 µM (inactive) |
| CC1CCCCN1c1nnc(NC(=O)c2cc(-c3ccc(Br)cc3)on2)s1 (stereo not given) | – | 29 µM (active) | – | – | – | – | – | – | – | – | – | – | – | – |
